Assay results from the supplement of paper PMC8183993.
Counter-ions that a name gives are not always drawn.

Columns and labels:
Conditions in all cases: 24 h
U2OS [1] = test: mean HPG incorporation (global translation) relative to DMSO (% of DMSO); higher = more protein synthesis
Protocol: (§1)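 Validation screen in U2OS cells: hits tested at 1, 3 and 10 uM for 24 h in duplicate plates. Translation was read by OPP incorporation (1 h pulse) and HPG incorporation (30 min in methionine-free medium), quantified by high-throughput microscopy alongside nuclei counts. All values are normalised to DMSO (= 100).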

U2OS [2] = test: nuclei count in HPG assay relative to DMSO (% of DMSO); higher = more viable cells
Protocol: as §1

U2OS [3] = test: mean OPP incorporation (global translation) relative to DMSO (% of DMSO); higher = more protein synthesis
Protocol: as §1

U2OS [4] = test: nuclei count in OPP assay relative to DMSO (% of DMSO); higher = more viable cells
Protocol: as §1

Row | SMILES | mean HPG incorporation (U2OS [1]; 1 µM) | mean HPG incorporation (U2OS [1]; 3 µM) | mean HPG incorporation (U2OS [1]; 10 µM) | nuclei count in HPG assay (U2OS [2]; 1 µM) | nuclei count in HPG assay (U2OS [2]; 3 µM) | nuclei count in HPG assay (U2OS [2]; 10 µM) | mean OPP incorporation (U2OS [3]; 1 µM) | mean OPP incorporation (U2OS [3]; 3 µM) | mean OPP incorporation (U2OS [3]; 10 µM) | nuclei count in OPP assay (U2OS [4]; 1 µM) | nuclei count in OPP assay (U2OS [4]; 3 µM) | nuclei count in OPP assay (U2OS [4]; 10 µM)
1 | CC(C)(C)c1nc(-c2cccc(NS(=O)(=O)c3c(F)cccc3F)c2F)c(-c2ccnc(N)n2)s1 | 50.8 | 48 | 106 | 96.6 | 100 | 104 | 102 | 97.2 | 114 | 101 | 102 | 104
2 | CCn1c(-c2nonc2N)nc2cnc(Oc3cccc(NC(=O)c4ccc(OCCN5CCOCC5)cc4)c3)cc21 | 73.1 | 71.8 | 76.4 | 99 | 96.3 | 76.4 | 97.1 | 97.5 | 97.5 | 102 | 101 | 82.6
3 | COc1cc(COc2cc(N)c(Cl)cc2C(=O)CCC2CCN(CCNS(C)(=O)=O)CC2)cc(OC)c1 | 82.2 | 83.4 | 58.1 | 100 | 106 | 90.1 | 121 | 122 | 120 | 95.1 | 97.5 | 79.8
4 | COc1cc(NC(=O)c2ccccn2)ccc1Cl | 106 | 113 | 116 | 103 | 95 | 96.2 | 83.8 | 79.6 | 70.9 | 105 | 91 | 88.2
5 | COc1cc2c(cc1C(F)(F)F)N(C(=O)Nc1cc(F)cc(-c3cccnc3)c1)CC2 | 95.1 | 98.3 | 74.3 | 95.9 | 95 | 89 | 102 | 112 | 117 | 96.9 | 93.9 | 88.4
6 | C[C@@H]1CN(CC(=O)Nc2ccc3c(c2)Cc2cccc(-c4cc(=O)cc(N5CCOCC5)o4)c2S3)C[C@H](C)O1 | 70.2 | 64.9 | 55 | 98.7 | 89.5 | 81.6 | 103 | 108 | 102 | 96.9 | 88 | 92.3
7 | Cc1c(C)c2c(c(C)c1O)CC[C@](C)(CN1CCN(c3cc(N4CCCC4)nc(N4CCCC4)n3)CC1)O2 | 90.2 | 93.4 | 87.1 | 94.9 | 102 | 98 | 98.2 | 97.2 | 111 | 95.4 | 101 | 102
8 | O=c1cc(N2CCOCC2)oc2c(-c3cccc4c3sc3ccccc34)cccc12 | 66.7 | 74.8 | 61.8 | 96.8 | 89.5 | 79.6 | 92.6 | 107 | 104 | 97.4 | 87.4 | 89.1
9 | COc1ccccc1N1CCN(CCN2C(=O)c3ccccc3C(C)(C)C2=O)CC1 [ARC 239 dihydrochloride] | 102 | 116 | 122 | 106 | 101 | 98.3 | 100 | 117 | 120 | 98.8 | 101 | 100
10 | CNC(=O)c1cccc(-c2ccc3c(N4CCOC[C@@H]4C)nc(N4CCOC[C@@H]4C)nc3n2)c1 [AZD2014] | 44.3 | 36.7 | 34.8 | 84.1 | 78 | 75 | 57.6 | 36.3 | 35.6 | 85.4 | 79.4 | 72.2
11 | COc1cc(C)c(/C=C/C(C)=C/C=C/C(C)=C/C(=O)O)c(C)c1C [Acitretin] | 99.8 | 108 | 87 | 91.8 | 95.3 | 95.7 | 107 | 109 | 109 | 91.4 | 89.8 | 94.2
12 | CCC(=O)CCCCC[C@@H]1NC(=O)[C@H]2CCCCN2C(=O)[C@H]([C@@H](C)CC)NC(=O)[C@H](Cc2cn(OC)c3ccccc23)NC1=O [Apicidin] | 132 | 135 | 85 | 108 | 96.3 | 88 | 92.2 | 83.9 | 55.8 | 106 | 95.4 | 91.7
13 | Cc1c(CN2CCN(C(=O)[C@H](C)O)CC2)sc2c(N3CCOCC3)nc(-c3cnc(N)nc3)nc12 [Apitolisib (GDC-0980, RG7422)] | 44.1 | 40.7 | 41.4 | 80.7 | 76.3 | 75 | 60.3 | 35.8 | 35.4 | 72.8 | 76.9 | 73.3
14 | Cc1c(-c2ccc(O)cc2)n(Cc2ccc(OCCN3CCCCCC3)cc2)c2ccc(O)cc12 [Bazedoxifene HCl] | 84.1 | 84.9 | 85.2 | 103 | 98.5 | 80.3 | 109 | 121 | 133 | 96.8 | 86.5 | 77.9
15 | CCN(CC)CCOc1ccc(C(=C(Cl)c2ccccc2)c2ccccc2)cc1 [Clomiphene citrate (Z,E)] | 90.2 | 115 | 123 | 91.3 | 95.3 | 86.7 | 116 | 124 | 136 | 88 | 98.6 | 93.3
16 | C=CC[C@@H]1/C=C(\C)C[C@H](C)C[C@H](OC)[C@H]2O[C@@](O)(C(=O)C(=O)N3CCCC[C@H]3C(=O)O[C@H](/C(C)=C/[C@@H]3CC[C@@H](O)[C@H](OC)C3)[C@H](C)[C@@H](O)CC1=O)[C@H](C)C[C@@H]2OC [FK-506 (Tacrolimus)] | 121 | 125 | 133 | 102 | 98.7 | 99.9 | 115 | 123 | 134 | 98.7 | 100 | 93.3
17 | CC1=C(/C=C/C(C)=C/C=C/C(C)=C/C(=O)Nc2ccc(O)cc2)C(C)(C)CCC1 [Fenretinide] | 98.1 | 93.5 | 96.7 | 102 | 93.9 | 86.7 | 107 | 109 | 117 | 97.1 | 96.5 | 87.9
18 | C[C@]12CC[C@@H]3c4ccc(O)cc4C[C@@H](CCCCCCCCC[S+]([O-])CCCC(F)(F)C(F)(F)F)[C@H]3[C@@H]1CC[C@@H]2O (stereo partly drawn) [Fulvestrant] | 118 | 125 | 115 | 97 | 101 | 89.1 | 115 | 123 | 115 | 98.7 | 96.4 | 93.8
19 | CC(=O)O[C@@H]1C[C@H]2C(C)(C)C(=O)C=C[C@]2(C)[C@H]2CC[C@@]3(C)[C@H](c4ccoc4)OC(=O)[C@H]4O[C@]43[C@@]21C [Gedunin] | 91.2 | 88.7 | 66.3 | 103 | 101 | 94.7 | 112 | 114 | 115 | 97.7 | 96.4 | 95.9
